According to PubChem BioAssay (NCI):
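Cells were grown in 96-well plates and exposed to each compound for 48 hours at five concentrations; endpoints were interpolated linearly between bracketing concentrations, or set to the highest concentration if not reached. The concentration for full growth arrest is given as TGI.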

Legend:
Experiment in all cases: NCI anticancer screen, dose series, 48 h
786-0 renal = tested on: 786-0 renal
A498 renal = tested on: A498 renal
A549 NSCLC = tested on: A549 NSCLC
ACHN renal = tested on: ACHN renal
BT-549 breast = tested on: BT-549 breast
CAKI-1 renal = tested on: CAKI-1 renal
CCRF-CEM leukemia = tested on: CCRF-CEM leukemia
COLO 205 colon = tested on: COLO 205 colon
DU-145 prostate = tested on: DU-145 prostate
EKVX NSCLC = tested on: EKVX NSCLC
HCT-116 colon = tested on: HCT-116 colon
HCT-15 colon = tested on: HCT-15 colon
HL-60(TB) leukemia = tested on: HL-60(TB) leukemia
HOP-62 NSCLC = tested on: HOP-62 NSCLC
HOP-92 NSCLC = tested on: HOP-92 NSCLC
HS 578T breast = tested on: HS 578T breast
HT29 colon = tested on: HT29 colon
IGROV1 ovarian = tested on: IGROV1 ovarian
K-562 leukemia = tested on: K-562 leukemia
KM12 colon = tested on: KM12 colon
LOX IMVI melanoma = tested on: LOX IMVI melanoma
M14 melanoma = tested on: M14 melanoma
MALME-3M melanoma = tested on: MALME-3M melanoma
MCF7 breast = tested on: MCF7 breast
MDA-MB-231 breast = tested on: MDA-MB-231 breast
MDA-MB-435 = tested on: MDA-MB-435
MDA-N = tested on: MDA-N
MOLT-4 leukemia = tested on: MOLT-4 leukemia
NCI-H226 lung = tested on: NCI-H226 lung
NCI-H23 lung = tested on: NCI-H23 lung
NCI-H460 lung = tested on: NCI-H460 lung
NCI-H522 lung = tested on: NCI-H522 lung
NCI/ADR-RES ovarian = tested on: NCI/ADR-RES ovarian
OVCAR-4 ovarian = tested on: OVCAR-4 ovarian
OVCAR-5 ovarian = tested on: OVCAR-5 ovarian
OVCAR-8 ovarian = tested on: OVCAR-8 ovarian
PC-3 prostate = tested on: PC-3 prostate
RXF 393 renal = tested on: RXF 393 renal
SF-268 CNS = tested on: SF-268 CNS
SF-295 CNS = tested on: SF-295 CNS
SF-539 CNS = tested on: SF-539 CNS
SK-MEL-2 melanoma = tested on: SK-MEL-2 melanoma
SK-MEL-28 melanoma = tested on: SK-MEL-28 melanoma
SK-MEL-5 melanoma = tested on: SK-MEL-5 melanoma
SK-OV-3 ovarian = tested on: SK-OV-3 ovarian
SN12C renal = tested on: SN12C renal
SNB-19 CNS = tested on: SNB-19 CNS
SNB-75 CNS = tested on: SNB-75 CNS
SR leukemia = tested on: SR leukemia
SW-620 colon = tested on: SW-620 colon
T-47D breast = tested on: T-47D breast
TK-10 renal = tested on: TK-10 renal
U251 CNS = tested on: U251 CNS
UACC-257 melanoma = tested on: UACC-257 melanoma
UACC-62 melanoma = tested on: UACC-62 melanoma
UO-31 renal = tested on: UO-31 renal
HCC-2998 colon = tested on: HCC-2998 colon
OVCAR-3 ovarian = tested on: OVCAR-3 ovarian
RPMI-8226 leukemia = tested on: RPMI-8226 leukemia

O=[N+]([O-])c1cccc(-c2cn3c(n2)Cc2ccccc2C3)c1
TGI (786-0 renal): > 100 µM | TGI (A498 renal): > 100 µM | TGI (A549 NSCLC): > 100 µM | TGI (ACHN renal): > 100 µM | TGI (BT-549 breast): > 100 µM | TGI (CAKI-1 renal): 58.2 µM | TGI (CCRF-CEM leukemia): > 100 µM | TGI (COLO 205 colon): > 100 µM | TGI (DU-145 prostate): > 100 µM | TGI (EKVX NSCLC): > 100 µM | TGI (HCT-116 colon): > 100 µM | TGI (HCT-15 colon): > 100 µM | TGI (HL-60(TB) leukemia): > 100 µM | TGI (HOP-62 NSCLC): > 100 µM | TGI (HOP-92 NSCLC): > 100 µM | TGI (HS 578T breast): > 100 µM | TGI (HT29 colon): > 100 µM | TGI (IGROV1 ovarian): > 100 µM | TGI (K-562 leukemia): > 100 µM | TGI (KM12 colon): > 100 µM | TGI (LOX IMVI melanoma): > 100 µM | TGI (M14 melanoma): > 100 µM | TGI (MALME-3M melanoma): > 100 µM | TGI (MCF7 breast): > 100 µM | TGI (MDA-MB-231 breast): 67.6 µM | TGI (MDA-MB-435): > 100 µM | TGI (MDA-N): > 100 µM | TGI (MOLT-4 leukemia): > 100 µM | TGI (NCI-H226 lung): > 100 µM | TGI (NCI-H23 lung): > 100 µM | TGI (NCI-H460 lung): > 100 µM | TGI (NCI-H522 lung): > 100 µM | TGI (NCI/ADR-RES ovarian): > 100 µM | TGI (OVCAR-4 ovarian): > 100 µM | TGI (OVCAR-5 ovarian): 79.9 µM | TGI (OVCAR-8 ovarian): > 100 µM | TGI (PC-3 prostate): > 100 µM | TGI (RXF 393 renal): > 100 µM | TGI (SF-268 CNS): > 100 µM | TGI (SF-295 CNS): > 100 µM | TGI (SF-539 CNS): > 100 µM | TGI (SK-MEL-2 melanoma): > 100 µM | TGI (SK-MEL-28 melanoma): > 100 µM | TGI (SK-MEL-5 melanoma): > 100 µM | TGI (SK-OV-3 ovarian): > 100 µM | TGI (SN12C renal): > 100 µM | TGI (SNB-19 CNS): > 100 µM | TGI (SNB-75 CNS): > 100 µM | TGI (SR leukemia): > 100 µM | TGI (SW-620 colon): > 100 µM | TGI (T-47D breast): > 100 µM | TGI (TK-10 renal): > 100 µM | TGI (U251 CNS): > 100 µM | TGI (UACC-257 melanoma): > 100 µM | TGI (UACC-62 melanoma): > 100 µM | TGI (UO-31 renal): > 100 µM

C/C(O)=C(\C=NC(=S)c1cccnc1)C(=O)Nc1ccccc1C
TGI (786-0 renal): > 100 µM | TGI (A498 renal): > 100 µM | TGI (A549 NSCLC): > 100 µM | TGI (ACHN renal): > 100 µM | TGI (BT-549 breast): > 100 µM | TGI (CAKI-1 renal): > 100 µM | TGI (CCRF-CEM leukemia): > 100 µM | TGI (COLO 205 colon): > 100 µM | TGI (DU-145 prostate): > 100 µM | TGI (EKVX NSCLC): > 100 µM | TGI (HCC-2998 colon): > 100 µM | TGI (HCT-116 colon): > 100 µM | TGI (HCT-15 colon): > 100 µM | TGI (HOP-62 NSCLC): > 100 µM | TGI (HOP-92 NSCLC): > 100 µM | TGI (HS 578T breast): > 100 µM | TGI (HT29 colon): > 100 µM | TGI (IGROV1 ovarian): > 100 µM | TGI (K-562 leukemia): > 100 µM | TGI (KM12 colon): > 100 µM | TGI (LOX IMVI melanoma): > 100 µM | TGI (M14 melanoma): > 100 µM | TGI (MCF7 breast): > 100 µM | TGI (MDA-MB-231 breast): > 100 µM | TGI (MDA-MB-435): > 100 µM | TGI (MDA-N): > 100 µM | TGI (MOLT-4 leukemia): > 100 µM | TGI (NCI-H226 lung): > 100 µM | TGI (NCI-H23 lung): > 100 µM | TGI (NCI-H460 lung): > 100 µM | TGI (NCI-H522 lung): > 100 µM | TGI (NCI/ADR-RES ovarian): > 100 µM | TGI (OVCAR-3 ovarian): > 100 µM | TGI (OVCAR-4 ovarian): > 100 µM | TGI (OVCAR-5 ovarian): > 100 µM | TGI (OVCAR-8 ovarian): > 100 µM | TGI (PC-3 prostate): > 100 µM | TGI (RPMI-8226 leukemia): > 100 µM | TGI (RXF 393 renal): > 100 µM | TGI (SF-268 CNS): > 100 µM | TGI (SF-295 CNS): > 100 µM | TGI (SF-539 CNS): > 100 µM | TGI (SK-MEL-2 melanoma): > 100 µM | TGI (SK-MEL-28 melanoma): > 100 µM | TGI (SK-MEL-5 melanoma): > 100 µM | TGI (SK-OV-3 ovarian): > 100 µM | TGI (SN12C renal): > 100 µM | TGI (SNB-19 CNS): > 100 µM | TGI (SNB-75 CNS): > 100 µM | TGI (SW-620 colon): > 100 µM | TGI (T-47D breast): > 100 µM | TGI (TK-10 renal): > 100 µM | TGI (U251 CNS): > 100 µM | TGI (UACC-257 melanoma): > 100 µM | TGI (UACC-62 melanoma): > 100 µM | TGI (UO-31 renal): > 100 µM
